Data: patent publication US20220177471A1, “N-1 BRANCHED ALKYL SUBSTITUTED IMIDAZO[4,5-C]QUINOLINE COMPOUNDS, COMPOSITIONS, AND METHODS” (3M INNOVATIVE PROPERTIES COMPANY, priority 2019, published 2022)

Columns and labels:
human TLR8 = target: T1, human TLR8 (Homo sapiens, UniProt Q9NR97); assay: TLR activation, HEK-BLUE-hTLR8 SEAP reporter cells; assay type: cell-based; conditions: 16-20 hours, lowest concentration giving SEAP response at least 2x vehicle control, tested 0.01-30 micromolar
T1 construct: host or cells: HEK293 (HEK-BLUE-hTLR8)
T1 sequence (Q9NR97 27-1041): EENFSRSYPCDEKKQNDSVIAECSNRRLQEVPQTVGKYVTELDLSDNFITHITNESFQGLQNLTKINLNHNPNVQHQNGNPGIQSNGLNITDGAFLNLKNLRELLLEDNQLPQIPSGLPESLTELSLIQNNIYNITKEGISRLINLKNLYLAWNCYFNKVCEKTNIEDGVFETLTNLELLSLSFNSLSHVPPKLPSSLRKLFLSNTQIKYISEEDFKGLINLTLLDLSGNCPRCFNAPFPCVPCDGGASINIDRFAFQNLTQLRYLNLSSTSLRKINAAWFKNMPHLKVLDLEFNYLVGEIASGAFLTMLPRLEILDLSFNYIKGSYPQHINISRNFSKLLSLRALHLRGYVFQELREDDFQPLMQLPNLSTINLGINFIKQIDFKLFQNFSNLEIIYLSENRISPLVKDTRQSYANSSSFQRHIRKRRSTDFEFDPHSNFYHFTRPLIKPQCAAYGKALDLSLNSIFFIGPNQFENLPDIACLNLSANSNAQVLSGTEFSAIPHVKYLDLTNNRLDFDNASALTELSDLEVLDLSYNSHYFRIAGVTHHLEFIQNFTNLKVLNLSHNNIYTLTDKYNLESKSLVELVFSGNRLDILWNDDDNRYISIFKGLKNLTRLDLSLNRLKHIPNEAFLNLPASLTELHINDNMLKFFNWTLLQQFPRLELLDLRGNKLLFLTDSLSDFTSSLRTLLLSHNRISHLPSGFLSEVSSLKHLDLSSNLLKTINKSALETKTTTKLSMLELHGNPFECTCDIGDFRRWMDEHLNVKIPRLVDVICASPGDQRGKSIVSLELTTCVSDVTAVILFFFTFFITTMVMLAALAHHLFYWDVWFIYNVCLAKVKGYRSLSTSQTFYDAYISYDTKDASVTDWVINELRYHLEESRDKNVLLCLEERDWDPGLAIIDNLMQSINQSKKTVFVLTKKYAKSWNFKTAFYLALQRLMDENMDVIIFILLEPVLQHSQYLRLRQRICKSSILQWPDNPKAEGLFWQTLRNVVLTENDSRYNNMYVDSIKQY
Procedure: (§1) HEK-BLUE-hTLR7 or hTLR8 reporter cells were obtained from InvivoGen, San Diego, Calif. According to the manufacturer's description, these reporter cells were prepared by co-transfection of HEK293 cells with an inducible secreted embryonic alkaline phosphatase (SEAP) reporter gene and either the human TLR7 or TLR8 gene. The SEAP reporter gene was placed under the control of an IFN-β minimal promoter fused to five NF-κB and AP-1-binding sites. In the presence of a TLR ligand, activation of NF-κB and AP-1 occurs, resulting in a corresponding increase in SEAP levels.
(§2) In the assay, the HEK cells were grown and maintained using standard cell culture techniques in a growth medium that contained Dulbecco's Modified Eagle Medium (ThermoFisher Scientific Incorporated, Waltham, Mass.) supplemented with 1% penicillin/streptomycin and 10% heat-inactivated Gibco fetal bovine serum (ThermoFisher Scientific). Each compound was solubilized in DMSO to create a 3 mM stock solution. The stock solution was then further diluted with the growth medium to prepare serial dilutions. Each test compound was tested at a concentration of 30, 10, 3.3, 1.1, 0.37, 0.12, 0.04, and 0.01 micromolar using a 96-well format with 5×10^4 cells and 200 microliters of growth medium per well.
(§3) For each compound, hTLR7, hTLR8, and their respective null control HEK cells were screened. DMSO serially diluted into the growth medium served as the vehicle control. Cell culture supernatants containing the SEAP reporter were collected after an incubation period of 16-20 hours in a cell culture incubator (37° C. and 5% CO2), and either analyzed immediately or stored at −80° C. SEAP levels were measured using the colorimetric enzyme assay (QUANTI-BLUE (InvivoGen) according to manufacturer's instructions.
(§4) Specifically, the minimum effective concentration of each compound (micromolar) was determined as the lowest concentration of the compound that produced a SEAP expression response at least 2× greater than that observed with the vehicle control wells.

human TLR7 = target: T2, human TLR7 (Homo sapiens, UniProt Q9NYK1); assay: TLR activation, HEK-BLUE-hTLR7 SEAP reporter cells; assay type: cell-based; conditions: 16-20 hours, lowest concentration giving SEAP response at least 2x vehicle control, tested 0.01-30 micromolar
T2 construct: host or cells: HEK293 (HEK-BLUE-hTLR7)
T2 sequence (Q9NYK1 27-1049): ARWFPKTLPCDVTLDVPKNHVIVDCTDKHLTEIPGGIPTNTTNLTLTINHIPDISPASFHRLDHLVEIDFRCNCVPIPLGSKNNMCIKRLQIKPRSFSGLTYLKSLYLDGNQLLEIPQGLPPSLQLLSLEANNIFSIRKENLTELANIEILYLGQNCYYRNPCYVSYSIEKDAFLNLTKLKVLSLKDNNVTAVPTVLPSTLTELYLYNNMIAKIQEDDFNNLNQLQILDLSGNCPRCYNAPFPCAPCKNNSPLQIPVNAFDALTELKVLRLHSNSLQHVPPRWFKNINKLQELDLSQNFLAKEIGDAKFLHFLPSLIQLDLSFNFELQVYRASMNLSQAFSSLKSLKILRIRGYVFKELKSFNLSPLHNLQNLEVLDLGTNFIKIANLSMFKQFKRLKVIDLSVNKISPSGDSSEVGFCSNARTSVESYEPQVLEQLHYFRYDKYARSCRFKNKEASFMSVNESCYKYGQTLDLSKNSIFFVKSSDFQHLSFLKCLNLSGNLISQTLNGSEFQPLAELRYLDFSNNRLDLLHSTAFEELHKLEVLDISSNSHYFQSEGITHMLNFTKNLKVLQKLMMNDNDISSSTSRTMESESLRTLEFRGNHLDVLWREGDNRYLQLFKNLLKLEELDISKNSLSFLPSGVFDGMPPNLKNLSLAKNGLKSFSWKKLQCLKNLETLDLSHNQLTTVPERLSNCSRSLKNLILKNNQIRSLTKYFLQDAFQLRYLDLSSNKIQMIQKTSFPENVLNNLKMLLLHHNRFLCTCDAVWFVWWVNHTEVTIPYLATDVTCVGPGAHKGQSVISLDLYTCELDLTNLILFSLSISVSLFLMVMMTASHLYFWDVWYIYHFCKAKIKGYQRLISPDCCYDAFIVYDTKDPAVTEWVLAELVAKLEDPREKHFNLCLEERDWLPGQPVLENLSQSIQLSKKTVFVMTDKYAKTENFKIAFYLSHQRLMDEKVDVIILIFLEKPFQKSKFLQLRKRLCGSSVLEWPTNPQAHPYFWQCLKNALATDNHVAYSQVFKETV
Procedure: as §1, §2, §3, §4

Row | SMILES | MEC to Produce TLR Activation: TLR 8 (human TLR8) [µM] | MEC to Produce TLR Activation: TLR 7 (human TLR7) [µM]
1 | CCC(O)(CC)[C@@H](C)n1cnc2c(N)nc3ccccc3c21 [Example 19, (2R)-2-(4-aminoimidazo[4,5-c]quinolin-1-yl)-3-ethyl-pentan-3-ol] | >30 | 3.3
2 | C[C@@H](n1cnc2c(N)nc3ccccc3c21)C(C)(C)F [Example 20, 1-[(1R)-2-fluoro-1,2-dimethyl-propyl]imidazo[4,5-c]quinolin-4-amine] | >30 | 3.3
3 | C[C@H](n1cnc2c(N)nc3ccccc3c21)C(C)(C)F [Example 21, 1-[(1S)-2-fluoro-1,2-dimethyl-propyl]imidazo[4,5-c]quinolin-4-amine] | >30 | >30
